Test results: patent US9980910B2, “Enteric-coated sodium metabisulfite livestock feed additive for vomitoxin detoxification” (priority 2010, dated 2018)

Experiments:
[1] = system: pigs; details: cited from earlier work
[2] = system: 25-50 lb pigs fed vomitoxin-contaminated corn; details: P<0.01
[3] = system: 66-278 lbs pigs; experiment: Growth performance of 66-278 lbs pigs fed sodium metabisulfite in clean diets (F6_G07_01); assay type: in vivo; details: level increased from 0 to 0.5 to 1.0% in non-vomitoxin contaminated diets
Source text: The data presented in Table 2 confirms that toxic effects begin to occur between 0 and 0.5% sodium metabisulfite in the diet.

[4] = system: pigs; details: feeding to pigs; cited from earlier work
[5] = Destruction of vomitoxin by sodium metabisulfite in vitro at two pH levels
Experimental: Sodium metabisulfite was tested for its ability to destroy vomitoxin in vitro at different pH levels. […] For example, when tested at 10 lb/ton, sodium metabisulfite destroyed 70% of the measurable vomitoxin at pH 6.5, but none at pH 3.0. At 20 lbs/ton sodium metabisulfite destroyed over 97% of the vomitoxin at pH 6.5 but only 41% at pH 3.0. Destruction levels less than 10% are considered to be random variation in this assay and not related to treatment. […] Although the levels of sodium metabisulfite required to destroy vomitoxin in this in vitro assay are higher than the “safe” level of 0.35% determined in a previous referenced feeding trial in pigs, other studies (Tables 1 and 3) clearly show positive effects of sodium metabisulfite at levels of 0.125 to 0.25% in vomitoxin-contaminated diets.

[6] = diet containing approximately 5 ppm vomitoxin, 25-55 lb pigs
[7] = vomitoxin-contaminated diet, 5 to 20 lbs/ton of diet (0.25 to 1.0%)

Structure (SMILES) | Vomitoxin level resulting in complete feed refusal, vomiting, immune suppression, and gastrointestinal lesions [1] | Reduction of daily feed intake [2, 6] | Reduction of growth rate [2, 6] | Average daily feed intake (effect in words) [3] | "no-effect" level (no toxic effects) [4] | Average daily feed intake (ADFI) (effect in words) [2, 7] | Average daily gain (ADG) (effect in words) [2, 7] | % destruction of vomitoxin ([5]; pH 3.0, metabisulfite 2.5 lbs/ton) | % destruction of vomitoxin ([5]; pH 3.0, metabisulfite 5 lbs/ton) | % destruction of vomitoxin ([5]; pH 3.0, metabisulfite 20 lbs/ton) | % destruction of vomitoxin ([5]; pH 6.5, metabisulfite 2.5 lbs/ton) | % destruction of vomitoxin ([5]; pH 6.5, metabisulfite 5 lbs/ton) | % destruction of vomitoxin ([5]; pH 6.5, metabisulfite 10 lbs/ton)
CC1=C[C@H]2O[C@@H]3[C@H](O)C[C@](C)([C@@]2(CO)[C@H](O)C1=O)[C@]31CO1 [Vomitoxin, deoxynivalenol] | above 5 ppm | 20% | 15% | – | – | – | – | – | – | – | – | – | –
O=S([O-])S(=O)(=O)[O-].[Na+].[Na+] [sodium metabisulfite, Sodium metabisulfite] | – | – | – | linearly reduced | 0.35 % of the diet | improves | improves | 4.2% | 0.9% | 41% | 0.0% | 0.0% | 70%
